Laboratory results: ChEMBL document CHEMBL1201862, “PubChem BioAssay data set” (2004)
Calls of active or inactive are those of the source. Rule as the data show it, for most assays here: actives have a measured EC50 and inactives only a lower limit.

Columns and labels:
[1] = Luminescence Cell-Based Dose Response HTS to Identify Inhibitors of 5'UTR Stem-Loop Driven Prion Protein mRNA Translation in H4 Neuroglioblastoma Cells. [Related pubchem assays: 1827 (Project Summary), 1813 (Primary HTS)]; assay type: functional
[2] = luciferase reporter signal suppression in cells – H4 neuroglioma cells, luminescence, dose response (AID 1990); assay type: functional, cell-based
[3] = alpha-synuclein stem-loop luciferase translation blockers – H4 neuroglioma cells, luminescence, confirmation (AID 1988); assay type: functional, cell-based
[4] = P. falciparum Dd2 growth inhibitors, dose response, SYBR Green, cherry-picked samples (AID 1159567); assay type: functional, cell-based
[5] = target: T1, Streptokinase A (Streptococcus pyogenes serotype M1, UniProt P10520); experiment: viability-normalized secreted streptokinase activity reduction – plasminogen activation absorbance, OD405, dose response (AID 1914); assay type: functional, Streptococcus pyogenes M1 GAS;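 also: secreted streptokinase activity via plasminogen activation per viability signal from cell pellet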
T1 sequence (P10520 whole entry): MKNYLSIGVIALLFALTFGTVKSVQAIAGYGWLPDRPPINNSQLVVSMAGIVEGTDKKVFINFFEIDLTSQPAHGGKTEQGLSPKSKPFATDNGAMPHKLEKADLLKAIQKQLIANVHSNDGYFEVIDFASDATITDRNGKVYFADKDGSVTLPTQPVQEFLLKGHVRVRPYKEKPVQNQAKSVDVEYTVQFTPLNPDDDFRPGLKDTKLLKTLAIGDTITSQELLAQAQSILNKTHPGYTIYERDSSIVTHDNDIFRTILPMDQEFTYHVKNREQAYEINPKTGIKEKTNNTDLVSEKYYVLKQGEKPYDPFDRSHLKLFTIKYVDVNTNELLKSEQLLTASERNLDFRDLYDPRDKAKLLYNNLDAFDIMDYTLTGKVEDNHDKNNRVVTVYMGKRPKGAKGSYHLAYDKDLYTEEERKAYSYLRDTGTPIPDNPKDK

[6] = tested on: INS1; experiment: INS-1E survival protection against cytokine death – cell-based, luminescence, retest, dose response (AID 449756); assay type: functional; conditions: Rattus norvegicus;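 also: cell death triggered by IL-1 beta plus TNF-alpha plus IFN-gamma mixture; protective hits raise ATP signal compared with cytokine alone wells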
[7] = viability of uninfected HEp-2 cells – cell-based, HTS, cytotoxicity control for RSV inhibitor project, dose response (AID 2410); assay type: functional; conditions: human respiratory syncytial virus
[8] = target: T2, Calpain-2 catalytic subunit (Sus scrofa, UniProt P43367); experiment: m-calpain protease blockers, concentration series – biochemical, fluorogenic peptide substrate, dose response (AID 1420); assay type: functional
T2 sequence (P43367 whole entry): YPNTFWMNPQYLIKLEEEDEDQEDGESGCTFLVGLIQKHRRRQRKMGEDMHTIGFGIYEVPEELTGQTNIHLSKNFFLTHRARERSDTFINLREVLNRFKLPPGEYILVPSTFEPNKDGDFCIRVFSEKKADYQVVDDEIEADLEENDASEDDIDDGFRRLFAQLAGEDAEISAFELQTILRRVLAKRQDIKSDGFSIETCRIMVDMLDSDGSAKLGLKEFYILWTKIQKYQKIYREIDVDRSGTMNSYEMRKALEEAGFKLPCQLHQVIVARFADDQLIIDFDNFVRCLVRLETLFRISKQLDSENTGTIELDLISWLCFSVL

[9] = tested on: Streptococcus; experiment: GAS UMAA2166 growth inhibition – luminescence, BacTiterGlo, counter-screen for streptokinase expression inhibitor project, dose response (AID 1915); assay type: functional, organism-based;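 also: potency for reduction of bacterial viability or growth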
[10] = tested on: Streptococcus sp. 'group A'; experiment: Streptococcus pyogenes SK(-)GAS viability under kanamycin – luminescence, BacTiterGlo, confirmation, counter-screen for streptokinase expression inhibitor project, dose response (AID 1900); assay type: functional, organism-based
[11] = target: T3, Corticotropin-releasing factor receptor 2/Corticotropin-releasing factor-binding protein (Homo sapiens, UniProt P24387+Q13324); experiment: Dose Response confirmation of uHTS hits for small molecule antagonists of the CRF-binding protein and CRF-R2 receptor complex.; assay type: functional; conditions: read-out: IC50_Mean
T3 sequence (Q13324 whole entry): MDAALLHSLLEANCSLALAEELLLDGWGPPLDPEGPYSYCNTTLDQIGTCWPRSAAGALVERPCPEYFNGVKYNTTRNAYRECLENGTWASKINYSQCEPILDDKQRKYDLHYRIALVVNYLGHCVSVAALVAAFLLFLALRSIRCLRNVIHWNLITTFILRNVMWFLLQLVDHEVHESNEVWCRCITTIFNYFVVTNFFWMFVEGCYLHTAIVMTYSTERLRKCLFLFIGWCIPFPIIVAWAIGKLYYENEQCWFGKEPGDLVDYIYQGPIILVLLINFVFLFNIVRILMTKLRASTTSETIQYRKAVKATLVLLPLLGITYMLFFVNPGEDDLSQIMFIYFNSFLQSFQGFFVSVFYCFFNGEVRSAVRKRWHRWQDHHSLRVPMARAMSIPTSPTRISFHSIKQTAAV
T3 sequence (P24387 whole entry): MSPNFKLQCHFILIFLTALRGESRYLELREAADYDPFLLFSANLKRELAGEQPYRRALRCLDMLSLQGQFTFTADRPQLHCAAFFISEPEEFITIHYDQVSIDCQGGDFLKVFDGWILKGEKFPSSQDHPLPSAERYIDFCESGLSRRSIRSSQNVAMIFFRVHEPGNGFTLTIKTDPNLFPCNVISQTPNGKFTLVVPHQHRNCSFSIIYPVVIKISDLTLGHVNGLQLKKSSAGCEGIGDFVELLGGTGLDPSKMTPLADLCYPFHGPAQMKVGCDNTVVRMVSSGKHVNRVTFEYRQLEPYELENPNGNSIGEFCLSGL

[12] = target: T3, Corticotropin-releasing factor receptor 2/Corticotropin-releasing factor-binding protein; experiment: activators of CRF receptor 2 with binding protein – uHTS hits, confirmation (AID 602473); assay type: functional; conditions: read-out: EC50_Mean
[13] = target: T4, Heat shock factor protein 1 (Mus musculus, UniProt P38532); experiment: decrease of HSF1-responsive luciferase luminescence – cell-based, NIH3T3, dose retest, confirmation (AID 2382); assay type: functional;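 also: NIH3T3 fibroblasts with HSF1-driven luciferase reporter stressed by proteasome inhibitor MG132; luminescence from HSF1-driven luciferase expression after 8 hours of MG132 stress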
T4 sequence (P38532 whole entry): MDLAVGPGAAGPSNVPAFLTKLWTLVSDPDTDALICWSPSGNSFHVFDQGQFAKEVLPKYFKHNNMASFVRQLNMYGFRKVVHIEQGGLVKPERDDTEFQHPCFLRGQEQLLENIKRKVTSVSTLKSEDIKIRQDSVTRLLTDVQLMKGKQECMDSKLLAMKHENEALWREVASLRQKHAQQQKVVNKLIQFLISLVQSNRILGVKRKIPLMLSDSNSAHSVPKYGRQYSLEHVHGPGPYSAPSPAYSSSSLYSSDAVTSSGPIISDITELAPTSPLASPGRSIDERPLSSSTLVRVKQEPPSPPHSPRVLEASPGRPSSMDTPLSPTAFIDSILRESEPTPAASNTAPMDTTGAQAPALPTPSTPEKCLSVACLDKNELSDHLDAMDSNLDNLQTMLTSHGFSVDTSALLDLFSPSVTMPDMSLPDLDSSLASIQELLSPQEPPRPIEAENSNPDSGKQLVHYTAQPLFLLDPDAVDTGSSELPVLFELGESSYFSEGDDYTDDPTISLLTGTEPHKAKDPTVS

[14] = Trypanosoma cruzi growth suppression in host cells – NIH3T3 host cells, beta-gal luminescence, confirmation (AID 2044); assay type: functional, cell-based;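 also: intracellular parasites grown in NIH/3T3 mouse fibroblasts as host cells; luminescent beta-galactosidase reporter signal from transgenic T. cruzi replicating inside host cells; inhibitors lower the luminescence signal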
[15] = NIH3T3 cell viability loss – ATP luminescence, mouse fibroblasts, counter-screen, dose response (AID 2010); assay type: functional, cell-based;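 also: cells exposed to compound for about 90 hours before reading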

Nc1c(S(=O)(=O)c2cccs2)c2nc3ccccc3nc2n1Cc1ccccc1
EC50 [1]: > 120 µM (not active) | EC50 [2]: 20.7 µM (active) | EC50 [3]: > 120 µM (not active)

N#Cc1ccc(-c2ccc([C@H]3[C@@H](CO)N4C(=O)CN(C(=O)Cc5ccccc5)C[C@@H]34)cc2)cc1
AC50 [4]: 18.1 µM (active)

Cc1nc2c(C(=O)Nc3ccc(N4CCCC(O)C4)cc3)snc2c(=O)[nH]1 (centres undefined)
EC50 [5]: > 150 µM (not active)

CC(C)(C)NC(=O)N1c2ccccc2Sc2ccccc21
EC50 [1]: > 120 µM (not active) | EC50 [2]: 15.3 µM (active) | EC50 [3]: 112 µM (active)

CN(C)C(=O)c1ccc(NC(=O)c2cccc(S(=O)(=O)N3CCCCCC3)c2)cc1
AC50 [6]: > 260 µM (inactive)

Fc1cccc(Cl)c1CSc1ccc(-c2cccnc2)nn1
CC50 [7]: > 50 µM (active) | IC50 [8]: 29.7 µM (not active)

Cc1cccc(/C=C2\Sc3ccc(C(=O)N4CCC(C)CC4)cc3N(C)C2=O)c1
EC50 [9]: 7.54 µM (active) | EC50 [10]: 3.11 µM (active) | EC50 [5]: 20.3 µM (active)

NC(=O)c1ccc(NC(=O)COC(=O)C2(c3ccccc3F)CCCC2)cc1
EC50 [1]: > 120 µM (not active) | EC50 [2]: > 120 µM (not active) | EC50 [3]: 17.5 µM (active)

CC(N=C(S)NC1CCCCC1)c1ccc(C(C)(C)C)cc1 (centres undefined)
AC50 [6]: 6.14 µM (active)

COC(=O)[C@H](CC(C)C)N(Cc1ccccc1)S(=O)(=O)N(Cc1ccccc1)[C@@H](CC(C)C)C(=O)OC
AC50 [6]: 13.7 µM (active)

Cc1ccc(S(=O)(=O)N2c3ccccc3OCC2C(C)(C)C)cc1 (centres undefined)
EC50 [9]: > 150 µM (not active) | IC50 [11]: > 47.1 µM (inactive) | EC50 [10]: 16.4 µM (active) | EC50 [5]: 16.9 µM (active) | EC50 [12]: > 53 µM (inactive)

OCc1cccc[n+]1CCc1ccccc1
EC50 [1]: 48.4 µM (active) | EC50 [2]: > 120 µM (not active) | EC50 [3]: > 120 µM (not active)

CCC(=O)N1CC2(C1)CN(S(=O)(=O)c1ccccc1)[C@@H](CO)c1[nH]c3cc(OC)ccc3c12
AC50 [4]: 5.43 µM (active)

CC(C)N(Cc1nc(-c2ccccc2)no1)C(=O)CCCN1C(=O)c2ccccc2C1=O
IC50 [8]: > 50 µM (not active)

COCCn1c(=O)c2c(nc3n2CC(C)CN3CCc2ccccc2)n(C)c1=O (centres undefined)
EC50 [1]: > 120 µM (not active) | EC50 [2]: > 120 µM (not active) | EC50 [3]: > 120 µM (not active)

CCOc1ccccc1Cn1c(=O)sc2ccccc21
IC50 [8]: 13.1 µM (not active)

COc1ccccc1NC(=O)/C(=C/c1cccs1)NC(=O)c1ccco1
IC50 [8]: 26 µM (not active)

CO[C@H]1CN(C)C(=O)c2cc(NC(=O)c3nc4ccccc4s3)ccc2OC[C@H](C)NC[C@@H]1C
AC50 [4]: 13.5 µM (active)

O=C1CCCc2c1[nH]c1ccc(Br)cc21
EC50 [1]: 86.4 µM (active) | EC50 [2]: < 0.1 µM (active) | EC50 [3]: 9.02 µM (active)

O=C(NNC(=O)c1cccnc1SCc1cccc([N+](=O)[O-])c1)c1ccc(F)cc1
AC50 [6]: 7.02 µM (active)

CCC(CC)C1=NN2C(=N)/C(=C\c3c(C)[nH]c4ccccc34)C(=O)N=C2S1
CC50 [7]: 16.1 µM (active) | EC50 [9]: 53 µM (active) | EC50 [10]: 5.71 µM (active) | EC50 [5]: 18.9 µM (inconclusive)

Cc1nn(Cc2ccc(Cl)cc2Cl)c(C)c1NC(=O)NC12CC3CC(CC(C3)C1)C2
EC50 [9]: 33.4 µM (active) | EC50 [10]: 7.54 µM (active) | EC50 [5]: 32.7 µM (active)

O=C(c1cc(COc2c(F)cccc2F)on1)N1CCC(c2ccccc2Cl)C1 (centres undefined)
IC50 [8]: 4.48 µM (not active)

CC/N=C1\S/C(=C\c2ccc(-c3cccc(C(=O)O)c3)o2)C(=O)N1CC
EC50 [9]: 10.7 µM (active) | EC50 [13]: > 195 µM (not active) | EC50 [10]: 3.4 µM (active) | EC50 [5]: > 150 µM (not active)

C[C@@H]1CN([C@@H](C)CO)C(=O)c2cccc(NC(=O)c3cnccn3)c2O[C@@H]1CN(C)Cc1ccc(C(F)(F)F)cc1
AC50 [4]: 9.12 µM (active)

Cc1ccc(-n2c(SCC(=O)NCCC3=CCCCC3)nc3nnc(C)c-3c2N)cc1Cl
EC50 [1]: 75.9 µM (active) | EC50 [2]: 23 µM (active) | EC50 [3]: > 120 µM (not active)

COc1ccccc1N1CCN(Cc2c[nH]c3ccccc23)CC1
EC50 [1]: 25.3 µM (active) | EC50 [14]: 2.1 µM (active) | EC50 [15]: > 60 µM (not active) | EC50 [2]: > 120 µM (not active) | EC50 [3]: > 120 µM (not active)

Cc1ccc(C[n+]2cccc(-c3ccccc3)c2)c(C)c1
EC50 [14]: 0.552 µM (active) | EC50 [15]: 11.9 µM (active) | AC50 [6]: 4.24 µM (active)

COc1cccc(C2CC(c3ccccc3OC)n3nc(N)nc3N2)c1 (centres undefined)
IC50 [8]: > 50 µM (not active)

CC(Sc1nnc(-c2ccc(O)cc2)o1)C(=O)Nc1cccc2ccccc12 (centres undefined)
IC50 [8]: < 0.4 µM (not active)

CCCn1c(C2CCCN2c2nc(-c3cccc(Br)c3)cs2)nc2cc(Cl)c(Cl)cc21 (centres undefined)
EC50 [9]: 56.5 µM (active) | EC50 [10]: 2.99 µM (active) | EC50 [5]: > 150 µM (not active)

O=C(C1CC12CCCC2)N1CCC(CO)(Cc2ccccc2Cl)CC1 (centres undefined)
EC50 [1]: 120 µM (active) | EC50 [2]: 19 µM (active) | EC50 [3]: > 120 µM (not active)

CCC(CO)Nc1ncnc2c1cnn2-c1ccc(OC)cc1 (centres undefined)
EC50 [9]: > 150 µM (not active) | EC50 [10]: > 150 µM (not active) | EC50 [5]: > 150 µM (not active)

Cc1ccc(C2CCN(C(S)=Nc3cccc(C)c3)C2)cc1 (centres undefined)
IC50 [8]: 9.72 µM (not active)

CCCNC(=O)c1ccc(N2CCC3(CC2)CC(c2ccccc2)=NO3)c(NC(=O)c2ccccc2)c1
EC50 [1]: > 120 µM (not active) | EC50 [2]: 18.7 µM (active) | EC50 [3]: 12.7 µM (active)

COc1ccc(-c2nnc(SC(C)C(=O)Nc3cccc(Cl)c3)o2)cc1 (centres undefined)
IC50 [8]: 11.7 µM (not active)
